# Values quoted from earlier work as cited in US20060083786A1 (Glenmark Pharmaceuticals Limited, priority 2004, published 2006).
# Details: in vivo
smiles,measurement,value
O=C(O)COCCN1CCN([C@H](c2ccccc2)c2ccc(Cl)cc2)CC1 [Levocetirizine],side effects on the central nervous system,free from side effects
